Test results published in patent publication US8846699B2, “Quinazoline derivatives as a multiplex inhibitor and method for the preparation thereof” (Hanmi Pharm. Co., Ltd., priority 2005, dated 2014).

What was measured:
[1] = tested on: Human Umbilical Vein Endothelial Cell (HUVEC); assay: Inhibitory effect on growth of human umbilical vein endothelial cell (HUVEC), MTS; type: cell-based; conditions: 10 ng/ml VEGF, absorbance 490 nm
[2] = target: VEGFR2 (KDR) (Homo sapiens (Human), UniProt P35968); assay: VEGFR2 (KDR) enzyme assay, fluorescence polarization; type: biochemical; conditions: 5 μM ATP, poly(Glu, Tyr) substrate
How it was run: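 Autophosphorylation read by fluorescence polarization: VEGFR2 (Proquinase) at 200 ng/10 μl with 5 μM ATP and 10 ng/ml poly(Glu,Tyr) 4:1, in 20 mM HEPES pH 7.4, 5 mM MgCl2, 2 mM MnCl2, 50 μM Na3VO4. Reaction 1 h at room temperature, EDTA stop, then anti-phosphotyrosine antibody/tracer for 30 min in the dark.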

[3] = target: EGFR1 (HER-1) (Homo sapiens (Human), UniProt P00533); assay: EGFR1 (HER-1) enzyme assay, fluorescence polarization; type: biochemical; conditions: 100 μM ATP, poly(Glu, Tyr) substrate
[4] = tested on: skin cancer cell line, A431; assay: Inhibitory effect on growth of cancer cell line A431, SRB; type: cell-based; conditions: overexpressed EGFR1 (HER-1)
How it was run: (§1)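 Cells were cultured in DMEM with 10% FBS. Compounds were applied at 10 μM with 10-fold serial dilution to 10^−4, DMSO <1%, for 72 h at 37 °C. Cells were then TCA-fixed and stained with 0.4% SRB, and absorbance was read at 570 nm after solubilisation in 10 mM Tris base.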

[5] = tested on: breast cancer cell line, SK-Br3; assay: Inhibitory effect on growth of cancer cell line SK-Br3, SRB; type: cell-based; conditions: overexpressed EGFR2 (HER-2)
How it was run: as §1

[6] = tested on: colon and rectal cancer cell line, SW-620; assay: Inhibitory effect on growth of cancer cell line SW-620, SRB; type: cell-based; conditions: not having overexpressed EGFR and EGFR2
How it was run: as §1

Chain of EGFR1 (HER-1) (P00533 25-1210): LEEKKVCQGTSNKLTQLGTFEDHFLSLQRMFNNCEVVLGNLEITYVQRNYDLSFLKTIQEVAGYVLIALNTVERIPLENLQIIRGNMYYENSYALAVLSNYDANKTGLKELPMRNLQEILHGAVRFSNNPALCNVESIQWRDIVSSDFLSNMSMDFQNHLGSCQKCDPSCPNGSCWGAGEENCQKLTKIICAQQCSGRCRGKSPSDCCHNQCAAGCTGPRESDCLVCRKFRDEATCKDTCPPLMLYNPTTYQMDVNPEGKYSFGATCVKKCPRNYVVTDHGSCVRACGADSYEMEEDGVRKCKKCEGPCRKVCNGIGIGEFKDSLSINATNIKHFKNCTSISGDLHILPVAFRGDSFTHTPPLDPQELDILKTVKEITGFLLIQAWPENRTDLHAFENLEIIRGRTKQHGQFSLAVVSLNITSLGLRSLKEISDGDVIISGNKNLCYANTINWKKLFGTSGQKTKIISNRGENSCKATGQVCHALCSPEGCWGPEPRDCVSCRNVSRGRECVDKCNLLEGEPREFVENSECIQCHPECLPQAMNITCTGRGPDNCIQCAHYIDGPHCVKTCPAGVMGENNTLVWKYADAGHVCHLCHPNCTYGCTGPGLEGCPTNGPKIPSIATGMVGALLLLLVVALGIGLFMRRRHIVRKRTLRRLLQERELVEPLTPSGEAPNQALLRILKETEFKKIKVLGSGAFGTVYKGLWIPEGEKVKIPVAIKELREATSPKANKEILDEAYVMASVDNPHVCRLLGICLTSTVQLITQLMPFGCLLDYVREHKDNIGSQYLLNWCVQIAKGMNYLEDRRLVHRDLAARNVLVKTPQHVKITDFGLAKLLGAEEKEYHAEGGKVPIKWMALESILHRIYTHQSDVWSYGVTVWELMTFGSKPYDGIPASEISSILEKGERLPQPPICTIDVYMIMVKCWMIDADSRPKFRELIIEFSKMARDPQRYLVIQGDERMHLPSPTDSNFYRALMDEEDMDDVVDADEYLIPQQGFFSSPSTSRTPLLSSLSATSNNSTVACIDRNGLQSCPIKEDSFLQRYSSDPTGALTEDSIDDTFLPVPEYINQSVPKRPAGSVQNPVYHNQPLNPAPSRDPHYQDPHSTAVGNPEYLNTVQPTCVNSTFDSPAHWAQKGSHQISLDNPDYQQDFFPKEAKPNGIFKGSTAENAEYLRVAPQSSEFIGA
Chain of VEGFR2 (KDR) (P35968 20-1356): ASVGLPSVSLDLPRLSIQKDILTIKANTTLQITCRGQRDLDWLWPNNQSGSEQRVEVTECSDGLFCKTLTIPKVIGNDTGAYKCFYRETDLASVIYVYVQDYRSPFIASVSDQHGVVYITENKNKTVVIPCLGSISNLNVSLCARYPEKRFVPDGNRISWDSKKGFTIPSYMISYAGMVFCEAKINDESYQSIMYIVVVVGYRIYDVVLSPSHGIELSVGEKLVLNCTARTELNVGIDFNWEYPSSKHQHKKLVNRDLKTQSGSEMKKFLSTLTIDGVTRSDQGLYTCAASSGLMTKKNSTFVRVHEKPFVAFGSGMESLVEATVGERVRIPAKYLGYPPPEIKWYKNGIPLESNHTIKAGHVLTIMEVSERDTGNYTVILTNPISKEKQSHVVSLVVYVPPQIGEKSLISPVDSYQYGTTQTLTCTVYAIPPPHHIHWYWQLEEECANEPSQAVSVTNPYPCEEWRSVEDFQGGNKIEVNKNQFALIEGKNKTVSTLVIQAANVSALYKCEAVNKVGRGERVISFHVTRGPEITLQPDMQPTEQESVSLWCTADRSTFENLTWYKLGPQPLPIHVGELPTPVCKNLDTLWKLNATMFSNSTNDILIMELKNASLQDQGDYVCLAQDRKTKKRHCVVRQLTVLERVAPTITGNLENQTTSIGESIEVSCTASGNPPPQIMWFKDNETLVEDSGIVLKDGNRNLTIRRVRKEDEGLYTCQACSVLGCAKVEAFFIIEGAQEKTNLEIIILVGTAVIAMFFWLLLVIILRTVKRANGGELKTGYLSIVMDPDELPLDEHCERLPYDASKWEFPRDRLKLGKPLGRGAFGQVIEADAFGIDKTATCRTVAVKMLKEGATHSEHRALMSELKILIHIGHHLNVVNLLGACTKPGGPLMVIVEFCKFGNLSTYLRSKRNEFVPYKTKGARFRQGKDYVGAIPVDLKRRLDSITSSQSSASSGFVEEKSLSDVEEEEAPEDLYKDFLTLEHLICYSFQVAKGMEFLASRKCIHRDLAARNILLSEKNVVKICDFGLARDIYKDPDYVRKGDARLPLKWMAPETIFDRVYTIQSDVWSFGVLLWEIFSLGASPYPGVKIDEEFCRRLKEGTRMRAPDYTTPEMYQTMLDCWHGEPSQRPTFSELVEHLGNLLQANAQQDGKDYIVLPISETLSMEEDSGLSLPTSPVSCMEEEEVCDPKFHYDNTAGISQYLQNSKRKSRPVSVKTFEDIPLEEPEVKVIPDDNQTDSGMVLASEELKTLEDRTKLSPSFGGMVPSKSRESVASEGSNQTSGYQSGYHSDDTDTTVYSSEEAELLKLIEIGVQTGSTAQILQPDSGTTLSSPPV

| SMILES | IC50 [2] [nM] | IC50 [3] [nM] | IC50 ([4]; Homo sapiens, A-431, 72 h) [nM] | IC50 ([5]; Homo sapiens, SK-BR-3, 72 h) [nM] | IC50 ([6]; Homo sapiens, 72 h) [nM] | IC50 ([1]; Homo sapiens, 96 h) [nM] | IC50 ([1]; 96 hours) [nM] | IC50 ([4]; 72 hours) [nM] | IC50 ([5]; 72 hours) [nM] | IC50 ([6]; 72 hours) [nM] |
| --- | --- | --- | --- | --- | --- | --- | --- | --- | --- | --- |
| C=CC(=O)Nc1cc2c(Nc3ccc(Br)cc3F)ncnc2cc1OCCNC(=O)C(=O)OCC [Example 71, {2-[6-acryloylamino-4-(4-bromo-2-fluoro-phenylamino)-quinazolin-7-yloxy]-ethyl}-oxalamic acid ethylester] | 251 | 98 | 100 | 4400 | 2980 | 286 | – | – | – | – |
| C=CC(=O)Nc1cc2c(Nc3ccc(Br)cc3F)ncnc2cc1OCCNC(=O)C(=O)O [Example 72, {2-[6-acryloylamino-4-(4-bromo-2-fluoro-phenylamino)-quinazolin-7-yloxy]-ethyl}-oxalamic acid] | 84 | 102 | 125 | 5410 | 10000 | 106 | – | – | – | – |
| C=CC(=O)Nc1cc2c(Nc3ccc(Br)cc3F)ncnc2cc1OCCNC(=O)C=NOC [Example 73, N-{4-(4-bromo-2-fluoro-phenylamino)-7-[2-(2-methoxyimino-acetylamino)-ethoxy]-quinazolin-6-yl}-acrylamide] | 668 | 256 | 365 | 589 | 10000 | 634 | – | – | – | – |
| C=CC(=O)Nc1cc2c(Nc3ccc(Br)cc3F)ncnc2cc1OCCNC(=O)C(C)CN(C)C (stereo not drawn) [Example 74, N-{4-(4-bromo-2-fluoro-phenylamino)-7-[2-(3-dimethylamino-2-methyl-propionylamino)-ethoxy]-quinazolin-6-yl}-acrylamide] | 372 | 251 | 321 | 658 | 726 | 358 | – | – | – | – |
| CCC(=O)Nc1cc2c(Nc3ccc(Br)cc3F)ncnc2cc1OCCNC(C)=O [Example 77, propionic acid [7-(2-acetylamino-ethoxy)-4-(4-bromo-2-fluoro-phenylamino)-quinazolin-6-yl]-amide] | 365 | 866 | 951 | 7800 | 10000 | 350 | – | – | – | – |
| C=CC(=O)Nc1cc2c(Nc3ccc(Br)c(F)c3)ncnc2cc1OCCNC(=O)CN(C)C [Example 79, N-4-(4-bromo-3-fluoro-phenylamino)-7-[2-(2-dimethylamino-acetylamino)-ethoxy]-quinazolin-6-yl-acrylamide] | 1430 | 78 | – | – | – | – | 723 | 84 | 313 | 10000 |
| C=CC(=O)Nc1cc2c(Nc3ccc(Br)cc3F)ncnc2cc1OC(C)CNC(C)=O (stereo not drawn) [Example 80, N-[7-(2-acetylamino-1-methyl-ethoxy)-4-(4-bromo-2-fluoro-phenylamino)-quinazolin-6-yl]-acrylamide] | 77 | 36 | 41 | 211 | 10000 | 109 | – | – | – | – |
| C=CC(=O)Nc1cc2c(Nc3ccc(Br)cc3F)ncnc2cc1OCC(C)NC(C)=O (stereo not drawn) [Example 81, N-[7-(2-acetylamino-propoxy)-4-(4-bromo-2-fluoro-phenylamino)-quinazolin-6-yl]-acrylamide] | 41 | 154 | 365 | 896 | 2500 | 205 | – | – | – | – |
| C=CC(=O)Nc1cc2c(Nc3ccc(Br)cc3F)ncnc2cc1OC[C@@H](C)NC(C)=O [Example 82, (R)—N-[7-(2-acetylamino-propoxy)-4-(4-bromo-2-fluoro-phenylamino)-quinazolin-6-yl]-acrylamide] | 158 | 29 | 35 | 60 | 10000 | 205 | – | – | – | – |
| C=CC(=O)Nc1cc2c(Nc3ccc(Br)cc3F)ncnc2cc1OC[C@H](C)NC(C)=O [Example 83, (S)—N-[7-(2-acetylamino-propoxy)-4-(4-bromo-2-fluoro-phenylamino)-quinazolin-6-yl]-acrylamide] | 71 | 98 | 113 | 933 | 2870 | 106 | – | – | – | – |
| C=CC(=O)Nc1cc2c(Nc3ccc(Br)cc3F)ncnc2cc1OCC(CC)NC(C)=O (stereo not drawn) [Example 86, N-[7-(2-acetylamino-butoxy)-4-(4-bromo-2-fluoro-phenylamino)-quinazolin-6-yl]-acrylamide] | 98 | 69 | 71 | 208 | 722 | 118 | – | – | – | – |

More lines, main results first:

| IC50 [2] [nM] | IC50 [3] [nM] | IC50 ([4]; Homo sapiens, A-431, 72 h) [nM] | IC50 ([5]; Homo sapiens, SK-BR-3, 72 h) [nM] | IC50 ([6]; Homo sapiens, 72 h) [nM] | SMILES | IC50 ([1]; Homo sapiens, 96 h) [nM] | IC50 ([1]; 96 hours) [nM] | IC50 ([4]; 72 hours) [nM] | IC50 ([5]; 72 hours) [nM] | IC50 ([6]; 72 hours) [nM] |
| --- | --- | --- | --- | --- | --- | --- | --- | --- | --- | --- |
| 94 | 26 | 34 | 71 | 10000 | C=CC(=O)Nc1cc2c(Nc3ccc(Br)cc3F)ncnc2cc1OCC(C)NC(=O)CC (stereo not drawn) [Example 84, N-[4-(4-bromo-2-fluoro-phenylamino)-7-(2-propionylamino-propoxy)-quinazolin-6-yl]-acrylamide] | 113 | – | – | – | – |
| 784 | 29 | 38 | 178 | 2760 | C=CC(=O)Nc1cc2c(Nc3ccc(Br)cc3F)ncnc2cc1OCC(C)NC(=O)NCCC (stereo not drawn) [Example 85, N-{4-(4-bromo-2-fluoro-phenylamino)-7-[2-(3-propyl-ureido)-propoxy]-quinazolin-6-yl}-acrylamide] | 964 | – | – | – | – |
| 698 | 40 | 44 | 288 | 10000 | C=CC(=O)Nc1cc2c(Nc3ccc(Br)cc3F)ncnc2cc1OCCCNC(=O)CC [Example 87, N-[4-(4-bromo-2-fluoro-phenylamino)-7-(3-propionylamino-propoxy)-quinazolin-6-yl]-acrylamide] | 692 | – | – | – | – |
| 477 | 295 | 310 | 1280 | 10000 | C=CC(=O)Nc1cc2c(Nc3ccc(Br)cc3F)ncnc2cc1OCCNc1nccs1 [Example 90, N-{4-(4-bromo-2-fluoro-phenylamino)-7-[2-(thiazol-2-ylamino)-ethoxy]-quinazolin-6-yl}-acrylamide] | 589 | – | – | – | – |
| 587 | 17 | 15 | 335 | 2790 | C=CC(=O)Nc1cc2c(Nc3ccc(Br)cc3F)ncnc2cc1OCC1CNC(=O)O1 (stereo not drawn) [Example 91, N-[4-(4-bromo-2-fluoro-phenylamino)-7-(2-oxo-oxazolidin-5-ylmethoxy)-quinazolin-6-yl]-acrylamide] | 696 | – | – | – | – |
| 129 | 47 | 57 | 437 | 729 | C=CC(=O)Nc1cc2c(Nc3ccc(Br)cc3F)ncnc2cc1OCCNC(=O)c1cccs1 [Example 92, thiophene-2-carboxylic acid {2-[6-acryloylamino-4-(4-bromo-2-fluoro-phenylamino)-quinazolin-7-yloxy]-ethyl}-amide] | 258 | – | – | – | – |
| 197 | 36 | 46 | 53 | 10000 | C=CC(=O)Nc1cc2c(Nc3ccc(Br)cc3F)ncnc2cc1OCCNC(=O)N1CCOCC1 [Example 93, morpholine-4-carboxylic acid {2-[6-acryloylamino-4-(4-bromo-2-fluoro-phenylamino)-quinazolin-7-yloxy]-ethyl}-amide] | 269 | – | – | – | – |
